Data as given in patent publication US12240857B2 (priority 2017, dated 2025).
Read-outs that look alike come from different tables or passages of the source.

Assays:
[1] = tested on: full-length Marburgvirus (MARV) GP pseudotyped VSV; test: microbe, parasite or virus in culture; type: cell-based, Marburg marburgvirus; conditions: for EC50: Orthomarburgvirus, read-out: EC50 Pseudotype Assays MARV
[2] = tested on: parent VSV virus expressing the native VSV glycoprotein; test: microbe, parasite or virus in culture; type: cell-based; conditions: Vesicular stomatitis virus, Vero, read-out: EC50 Pseudotype Assays VSV
[3] = tested on: BDBV mucin-domain-deleted glycoprotein pseudotyped VSV; test: microbe, parasite or virus in culture; type: cell-based, Bundibugyo ebolavirus; conditions: Vesicular stomatitis virus, Vero
[4] = tested on: wild-type Ebola Zaire; test: microbe, parasite or virus in culture; conditions: Zaire ebolavirus, HeLa, read-out: Ebola Zaire EC50
[5] = in vitro; conditions: monkey, microsomes
[6] = in vitro; conditions: human, microsomes
[7] = in vitro; conditions: mouse, microsomes
[8] = tested on: full-length Ebola Zaire GP pseudotyped VSV (EBOV_FL); test: microbe, parasite or virus in culture; type: cell-based; conditions: Zaire ebolavirus, read-out: EC50 Pseudotype Assays EBOV_FL
[9] = tested on: EBOV mucin-domain-deleted glycoprotein pseudotyped VSV; test: microbe, parasite or virus in culture; type: cell-based, Zaire ebolavirus; conditions: Zaire ebolavirus, Vero
[10] = tested on: wild-type Ebola Zaire
[11] = in vitro; conditions: African green monkey
[12] = tested on: full-length LASV glycoprotein pseudotyped VSV; test: microbe, parasite or virus in culture; type: cell-based, Lassa virus; conditions: Vesicular stomatitis virus, read-out: EC50 Pseudotype Assays LASV
[13] = tested on: wild-type Sudan Gulu; test: microbe, parasite or virus in culture; conditions: Sudan ebolavirus, HeLa, read-out: Sudan Gulu EC50
[14] = tested on: full-length SUDV GP pseudotyped VSV; test: microbe, parasite or virus in culture; type: cell-based, Sudan ebolavirus; conditions: Vesicular stomatitis virus, read-out: EC50 Pseudotype Assays SUDV
[15] = tested on: wild-type Sudan Gulu
[16] = read-out: EC50 Pseudotype Assays BDBV
[17] = read-out: EC50 Pseudotype Assays EBOV

Compound | EC50 [1] [nM] | EC50 [2] [nM] | EC50 ([3]; read-out: EC50 BDBV) [nM] | EC50 [3, 16] [nM] | EC50 [4] [nM] | half-life [5] [h] | half-life [6] [h] | half-life [7] [h] | EC50 [8] [nM] | EC50 ([9]; read-out: EC50 EBOV) [nM] | EC50 [9, 17] [nM] | Ebola Zaire SI (CC50/EC50) [10] | CC50 ([11]; CC50) [nM] | CC50 ([11]; Cytotox CC50) [nM] | EC50 [12] [nM] | EC50 [13] [nM] | EC50 [14] [nM] | Sudan Gulu SI (CC50/EC50) [15] | EC50 ([3]; 24 h, read-out: EC50 BDBV) [nM] | EC50 ([9]; 24 h, read-out: EC50 EBOV) [nM] | also measured
O=C(NC1CCNCC1)C12CC3CC(C1)CC(c1ccccc1)(C3)C2 [Example A63] | 2800 | > 10000 | 80 | 80 | 390 | 3.95 | 4.3 | > 3.5 | 40 | 80 | 80 | >16 | > 10000 | > 10000 | > 10000 |  |  |  |  |  | 
CC12CC3CC(C(=O)NC4CCNCC4)(C1)CC(c1ccccc1)(C3)C2 (stereo not drawn) [Example A68] | 2800 | > 10000 | 160 | 170 | 180 | 2.37 | 3.12 | > 4 | 40 | 35 | 40 | 134 | > 10000 | > 10000 | > 10000 | 130 | 410 | 181 |  |  | 
CCC12CC3CC(C(=O)N[C@H]4CC[C@H](N)CC4)(C1)CC(c1ccccc1)(C3)C2 (stereo partly drawn) [Example A85] |  |  | 96 |  | 100 | 1.4 | > 2 | > 2 |  | 13 |  | 112 | 12100 |  |  | 180 |  | 64 |  |  | 
CC1CCN(CC(O)COc2ccc(C34CC5CC(CC(C5)C3)C4)cc2)CC1 (stereo not drawn) [Example D21, 1-[4-(adamantan-1-yl)phenoxy]-3-(4-methylpiperidin-1-yl)propan-2-ol] | 360 | 3700 |  | 110 | 150 |  |  |  | 110 |  | 50 | 48.1 | 1100 | 3700 | 3000 | 190 | 410 | 38.2 | 110 | 50 | MARV pseudotyped virus EC50 concentration (in words) [1]: sub-micromolar
OCCN1CCN(CC(O)COc2ccc(C34CC5CC(CC(C5)C3)C4)cc2)CC1 (stereo not drawn) [Example D24, 1[4-(adamantan-1-yl)phenoxy]-3[4-(2-hydroxyethyl)piperazin-1-yl]propan-2-ol] | > 10000 | > 10000 |  | 270 | 440 |  |  |  | 80 |  | 90 | 45.6 | 4300 | > 10000 | > 10000 | 260 | 2430 | 78.7 | 270 | 80 | 
CN(C)CCCNc1nc(C23CC4CC(CC(C4)C2)C3)cs1 [Example D29, (3-{[4-(adamantan-1-yl)-1,3-thiazol-2-yl]amino}propyl) dimethylamine] | 660 | > 10000 |  | 160 | 920 |  |  |  | 180 |  | 170 | 66.1 | 9400 | > 10000 | > 10000 | 300 | 1440 | 203 | 160 | 170 | MARV pseudotyped virus EC50 concentration (in words) [1]: sub-micromolar
